Measured values as given in patent publication US6903128B2, “Non-peptidyl inhibitors of VLA-4 dependent cell binding useful in treating inflammatory, autoimmune, and respiratory diseases” (Pfizer Inc, priority 1999, dated 2005).

## COc1cc(CC(=O)NC(CC(C)C)c2cc(CC(NC(C)=O)C(=O)O)on2)ccc1NC(=O)Nc1ccccc1C (centres unmarked) [Example 27, 2-acetylamino-3-[3-(1-{2-[3-methoxy-4-(3-o-tolyl-ureido)-phenyl]-acetylamino}-3-methyl-butyl)-isoxazol-5-yl]-propionic acid]
  melting point: 123 to 125 °C

## COc1cc(CC(=O)NC(CC(C)C)c2cc(CC(NC(=O)c3c(Cl)cccc3Cl)C(=O)O)on2)ccc1NC(=O)Nc1ccccc1C (centres unmarked) [Example 25, 2-(2,6-Dichloro-benzoylamino)-3-[3-(1-{2-[3-methoxy-4-(3-o-tolyl-ureido)-phenyl]-acetylamino}-3-methyl-butyl)-isoxazol-5-yl]-propionic acid]
  melting point: 102 to 104 °C
